In PubChem BioAssay AID192 (DTP/NCI, 2004) one finds T/C data, which are given here for six molecules.

For this assay, the system named is BDF1 mice, B16 melanoma ip, median survival T/C. The experiment in a line: NCI In Vivo Anticancer Drug Screen. Data for tumor model B16 Melanoma (intraperitoneal) in B6D2F1 (BDF1) mice. The settings on record: endpoint: median survival time, higher = longer survival. In short, it runs like this:
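Values are ratios of treated (T) to vehicle-control (C) measurements of survival or tumor size in tumor-bearing mice.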

Where “and” joins values, the source holds several entries; their conditions need not be identical. Identical values can stand only once. Toxic doses and inconclusive results are not listed.

For `CC(=O)OC1OC(=O)C(C)(C(C)=O)C1C` (stereo not drawn), the T/C is 104 % of control (dose: 2.5 mg/kg/injection, schedule: Q01DX009 (ip), vehicle: distilled water + alcohol); 102 % of control (dose: 5.0 mg/kg/injection, schedule: Q01DX009 (ip), vehicle: distilled water + alcohol); 104 % of control (dose: 10.0 mg/kg/injection, schedule: Q01DX009 (ip), vehicle: distilled water + alcohol).
For `O=C(Cc1ccccc1)OCCc1ccccc1`, the T/C is 103 % of control (dose: 100.0 mg/kg/injection, schedule: Q01DX009 (ip), vehicle: Klucel (hydroxypropylcellulose) (HPC)); 100 % of control (dose: 200.0 mg/kg/injection, schedule: Q01DX009 (ip), vehicle: Klucel (hydroxypropylcellulose) (HPC)); 93 % of control (dose: 400.0 mg/kg/injection, schedule: Q01DX009 (ip), vehicle: Klucel (hydroxypropylcellulose) (HPC)).
In the case of `C=C1C(=O)O[C@@H]2/C=C(/C)[C@@]3(O)C=C[C@](C)(C[C@@H](OC(=O)/C(=C\C)COC(C)=O)[C@@H]12)O3`, the T/C is 99 % of control (dose: 0.03 mg/kg/injection, schedule: Q01DX009 (ip), vehicle: carboxymethylcellulose (CMC)); 102 % of control (dose: 0.12 mg/kg/injection, schedule: Q01DX009 (ip), vehicle: carboxymethylcellulose (CMC)); 97 % of control (dose: 0.25 mg/kg/injection, schedule: Q01DX009 (ip), vehicle: carboxymethylcellulose (CMC)); 99 % of control (dose: 6.0 mg/kg/injection, schedule: Q01DX009 (ip), vehicle: saline with Tween-80); 105 % of control (dose: 8.0 mg/kg/injection, schedule: Q01DX009 (ip), vehicle: saline with Tween-80); 109 % of control (dose: 12.0 mg/kg/injection, schedule: Q01DX009 (ip), vehicle: saline with Tween-80). The T/C (dose: 18.0 mg/kg/injection, schedule: Q01DX009 (ip), vehicle: saline with Tween-80) was 92 % of control.
As to `CN(C)CC(C)(C)CN1c2ccccc2Sc2ccccc21`, the T/C (dose: 6.25 mg/kg/injection, schedule: Q01DX009 (ip), vehicle: saline) is 117 % of control; the T/C (dose: 12.5 mg/kg/injection, schedule: Q01DX009 (ip), vehicle: saline) was 105 % of control; the T/C (dose: 25.0 mg/kg/injection, schedule: Q01DX009 (ip), vehicle: saline) is 105 % of control.
With `CCNC(Cc1ccccc1)c1ccc(OC)cc1` (stereo not drawn), the T/C is, setting by setting: (dose: 12.5 mg/kg/injection, schedule: Q01DX009 (ip), vehicle: Klucel (hydroxypropylcellulose) (HPC)) 106 % of control; (dose: 25.0 mg/kg/injection, schedule: Q01DX009 (ip), vehicle: Klucel (hydroxypropylcellulose) (HPC)) 100 % of control; (dose: 50.0 mg/kg/injection, schedule: Q01DX009 (ip), vehicle: Klucel (hydroxypropylcellulose) (HPC)) 113 % of control.
For the molecule `CSC1SCC2C(=O)N(C)C(C(C)C)C(=O)OCC(NC(=O)c3cnc4ccccc4n3)C(=O)NC(C)C(=O)N(C)C1C(=O)N(C)C(C(C)C)C(=O)OCC(NC(=O)c1cnc3ccccc3n1)C(=O)NC(C)C(=O)N2C` (stereo not drawn), the T/C was 106 % of control (dose: 0.1 micrograms/kg/injection, schedule: Q01DX009 (ip), vehicle: saline with Tween-80); 105 % of control (dose: 0.2 micrograms/kg/injection, schedule: Q01DX009 (ip), vehicle: saline with Tween-80); 108 % of control (dose: 0.4 micrograms/kg/injection, schedule: Q01DX009 (ip), vehicle: saline with Tween-80); 108 % of control (dose: 0.9 micrograms/kg/injection, schedule: Q01DX009 (ip), vehicle: saline with Tween-80); 93 % of control (dose: 0.94 micrograms/kg/injection, schedule: Q01DX009 (ip), vehicle: Klucel (hydroxypropylcellulose) (HPC)); 113 % of control (dose: 0.94 micrograms/kg/injection, schedule: Q01DX009 (ip), vehicle: clinical formulation). The T/C (dose: 0.94 micrograms/kg/injection, schedule: Q01DX009 (ip), vehicle: distilled water + alcohol) is 118 % of control; the T/C (dose: 1.8 micrograms/kg/injection, schedule: Q01DX009 (ip), vehicle: saline with Tween-80) was 151 % of control and 167 % of control; the T/C (dose: 1.88 micrograms/kg/injection, schedule: Q01DX009 (ip), vehicle: Klucel (hydroxypropylcellulose) (HPC)) was 88 % of control; the T/C (dose: 1.88 micrograms/kg/injection, schedule: Q01DX009 (ip), vehicle: clinical formulation) was 112 % of control; the T/C (dose: 1.88 micrograms/kg/injection, schedule: Q01DX009 (ip), vehicle: distilled water + alcohol) is 117 % of control; the T/C (dose: 1.9 micrograms/kg/injection, schedule: Q01DX009 (ip), vehicle: saline) was 156 % of control. For the same molecule, the T/C by setting is: (dose: 3.75 micrograms/kg/injection, schedule: Q01DX009 (ip), vehicle: Klucel (hydroxypropylcellulose) (HPC)) 102 % of control; (dose: 3.75 micrograms/kg/injection, schedule: Q01DX009 (ip), vehicle: distilled water + alcohol) 113 % of control; (dose: 3.8 micrograms/kg/injection, schedule: Q01DX009 (ip), vehicle: saline) 123 % of control; (dose: 7.5 micrograms/kg/injection, schedule: Q01DX009 (ip), vehicle: Klucel (hydroxypropylcellulose) (HPC)) 107 % of control; (dose: 7.5 micrograms/kg/injection, schedule: Q01DX009 (ip), vehicle: distilled water + alcohol) 123 % of control; (dose: 8.0 micrograms/kg/injection, schedule: Q01DX009 (ip), vehicle: other) 152 % of control and 155 % of control. Besides, the T/C was 115 % of control (dose: 15.0 micrograms/kg/injection, schedule: Q01DX009 (ip), vehicle: Klucel (hydroxypropylcellulose) (HPC)); 169 % of control (dose: 15.0 micrograms/kg/injection, schedule: Q01DX009 (ip), vehicle: clinical formulation); 174 % of control (dose: 15.0 micrograms/kg/injection, schedule: Q01DX009 (ip), vehicle: saline); 161 % of control (dose: 16.0 micrograms/kg/injection, schedule: Q01DX009 (ip), vehicle: other); 160 % of control and 168 % of control (dose: 16.0 micrograms/kg/injection, schedule: Q01DX009 (ip), vehicle: saline sonified); 160 % of control (dose: 16.0 micrograms/kg/injection, schedule: Q01DX009 (ip), vehicle: saline). The T/C was 168 % of control (dose: 30.0 micrograms/kg/injection, schedule: Q01DX009 (ip), vehicle: clinical formulation); 88 % of control (dose: 30.0 micrograms/kg/injection, schedule: Q01DX009 (ip), vehicle: saline with Tween-80); 183 % of control (dose: 30.0 micrograms/kg/injection, schedule: Q01DX009 (ip), vehicle: saline); 157 % of control and 158 % of control and 160 % of control (dose: 32.0 micrograms/kg/injection, schedule: Q01DX009 (ip), vehicle: other); 167 % of control and 170 % of control and 189 % of control (dose: 32.0 micrograms/kg/injection, schedule: Q01DX009 (ip), vehicle: saline sonified); 165 % of control (dose: 32.0 micrograms/kg/injection, schedule: Q01DX009 (ip), vehicle: saline). Also, the T/C is 156 % of control (dose: 32.0 micrograms/kg/injection, schedule: Q04DX003 (ip), vehicle: saline sonified); 173 % of control (dose: 60.0 micrograms/kg/injection, schedule: Q01DX009 (ip), vehicle: clinical formulation); 168 % of control (dose: 60.0 micrograms/kg/injection, schedule: Q01DX009 (ip), vehicle: distilled water + alcohol); 165 % of control (dose: 60.0 micrograms/kg/injection, schedule: Q01DX009 (ip), vehicle: saline); 159 % of control and 189 % of control and 215 % of control (dose: 64.0 micrograms/kg/injection, schedule: Q01DX009 (ip), vehicle: other); 165 % of control and 172 % of control (dose: 64.0 micrograms/kg/injection, schedule: Q01DX009 (ip), vehicle: saline sonified). Moreover, the T/C was 176 % of control (dose: 64.0 micrograms/kg/injection, schedule: Q01DX009 (ip), vehicle: saline); 174 % of control (dose: 64.0 micrograms/kg/injection, schedule: Q04DX003 (ip), vehicle: saline sonified); 154 % of control (dose: 120.0 micrograms/kg/injection, schedule: Q01DX009 (ip), vehicle: Klucel (hydroxypropylcellulose) (HPC)); 173 % of control (dose: 120.0 micrograms/kg/injection, schedule: Q01DX009 (ip), vehicle: distilled water + alcohol); 162 % of control and 189 % of control (dose: 120.0 micrograms/kg/injection, schedule: Q01DX009 (ip), vehicle: saline with Tween-80); 164 % of control and 188 % of control (dose: 128.0 micrograms/kg/injection, schedule: Q01DX009 (ip), vehicle: saline sonified). Further, the T/C (dose: 128.0 micrograms/kg/injection, schedule: Q01DX009 (ip), vehicle: saline) is 166 % of control; the T/C (dose: 128.0 micrograms/kg/injection, schedule: Q04DX003 (ip), vehicle: saline sonified) is 165 % of control; the T/C (dose: 192.0 micrograms/kg/injection, schedule: Q04DX003 (ip), vehicle: saline sonified) was 180 % of control; the T/C (dose: 240.0 micrograms/kg/injection, schedule: Q01DX009 (ip), vehicle: Klucel (hydroxypropylcellulose) (HPC)) is 151 % of control; the T/C (dose: 240.0 micrograms/kg/injection, schedule: Q01DX009 (ip), vehicle: saline with Tween-80) was 115 % of control; the T/C (dose: 256.0 micrograms/kg/injection, schedule: Q04DX003 (ip), vehicle: saline sonified) was 175 % of control. Also, the T/C (dose: 480.0 micrograms/kg/injection, schedule: Q01DX009 (ip), vehicle: Klucel (hydroxypropylcellulose) (HPC)) is 168 % of control.
